Activity calls are given as the source filed them.

What is called AC50 is the concentration at which the activity in the assay is half-maximal. As a reminder, the CC50 is the concentration giving 50% cytotoxicity.

Assay [1] addresses T1, Hexokinase HKDC1 (Homo sapiens, UniProt Q2TB90).
T1 sequence (Q2TB90 whole entry): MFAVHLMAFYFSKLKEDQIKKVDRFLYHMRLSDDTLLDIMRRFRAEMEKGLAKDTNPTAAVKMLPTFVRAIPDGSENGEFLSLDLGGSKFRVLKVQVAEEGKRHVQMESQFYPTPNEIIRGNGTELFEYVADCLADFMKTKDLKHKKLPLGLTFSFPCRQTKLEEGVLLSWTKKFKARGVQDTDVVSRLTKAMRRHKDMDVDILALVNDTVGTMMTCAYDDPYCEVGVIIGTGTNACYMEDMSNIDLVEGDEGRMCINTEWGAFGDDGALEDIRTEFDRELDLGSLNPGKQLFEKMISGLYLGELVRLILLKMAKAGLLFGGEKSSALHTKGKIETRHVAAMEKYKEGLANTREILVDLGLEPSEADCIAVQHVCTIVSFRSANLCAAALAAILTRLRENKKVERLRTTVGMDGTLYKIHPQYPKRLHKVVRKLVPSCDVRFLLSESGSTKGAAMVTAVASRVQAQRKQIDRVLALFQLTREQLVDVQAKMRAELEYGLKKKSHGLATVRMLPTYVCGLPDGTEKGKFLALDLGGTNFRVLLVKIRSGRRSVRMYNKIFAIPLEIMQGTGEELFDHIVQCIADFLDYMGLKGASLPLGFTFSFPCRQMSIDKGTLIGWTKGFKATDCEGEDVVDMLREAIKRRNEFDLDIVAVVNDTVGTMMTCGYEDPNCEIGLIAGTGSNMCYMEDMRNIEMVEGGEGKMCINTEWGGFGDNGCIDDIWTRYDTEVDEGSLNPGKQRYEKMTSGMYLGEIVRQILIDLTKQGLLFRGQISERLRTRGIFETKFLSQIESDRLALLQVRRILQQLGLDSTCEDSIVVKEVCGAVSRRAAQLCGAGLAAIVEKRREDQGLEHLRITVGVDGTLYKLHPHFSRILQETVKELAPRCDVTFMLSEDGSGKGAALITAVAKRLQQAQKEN
The experiment in a line: inhibition of HKDC1 glucose phosphorylation – biochemical, W721R variant, dose response (AID 504729). The assay is classed as functional.

The target in assay [2] is Genome polyprotein (dengue virus type 2, UniProt P29990). The experiment in a line: flavivirus cap methylation enzyme inhibition – biochemical, confirmation dose response, primary screen (AID 588689). Type of assay: functional.
Chain of Genome polyprotein (P29990 2492-3391 limits assumed): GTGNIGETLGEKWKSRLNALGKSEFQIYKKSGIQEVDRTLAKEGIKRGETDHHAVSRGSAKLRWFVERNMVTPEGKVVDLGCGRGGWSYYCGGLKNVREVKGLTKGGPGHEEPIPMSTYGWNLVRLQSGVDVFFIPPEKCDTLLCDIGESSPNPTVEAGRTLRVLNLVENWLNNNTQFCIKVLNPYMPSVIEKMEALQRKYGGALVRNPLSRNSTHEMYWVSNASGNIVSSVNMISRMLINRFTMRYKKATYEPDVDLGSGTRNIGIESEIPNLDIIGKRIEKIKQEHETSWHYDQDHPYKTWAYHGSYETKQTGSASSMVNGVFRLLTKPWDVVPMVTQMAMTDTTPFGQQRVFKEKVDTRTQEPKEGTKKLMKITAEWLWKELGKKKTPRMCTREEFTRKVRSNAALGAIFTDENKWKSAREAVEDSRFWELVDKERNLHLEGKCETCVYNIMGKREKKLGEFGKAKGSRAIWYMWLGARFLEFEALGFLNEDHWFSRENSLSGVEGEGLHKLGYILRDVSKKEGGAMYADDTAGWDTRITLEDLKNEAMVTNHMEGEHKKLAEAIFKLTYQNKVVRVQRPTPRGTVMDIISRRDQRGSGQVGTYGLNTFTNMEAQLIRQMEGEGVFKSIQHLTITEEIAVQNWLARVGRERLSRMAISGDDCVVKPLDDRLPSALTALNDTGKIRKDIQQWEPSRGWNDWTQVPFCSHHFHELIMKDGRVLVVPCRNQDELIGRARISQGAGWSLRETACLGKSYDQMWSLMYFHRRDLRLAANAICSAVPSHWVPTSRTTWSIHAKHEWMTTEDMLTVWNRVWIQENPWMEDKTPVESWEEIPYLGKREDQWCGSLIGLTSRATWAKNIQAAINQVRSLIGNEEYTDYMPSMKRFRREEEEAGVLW
The target of assay [3] is Tyrosyl-DNA phosphodiesterase 2 (Homo sapiens, UniProt O95551). The assay is described as follows: potency against TDP2 phosphodiesterase activity – biochemical, epi absorbance, IC50, dose response (AID 743297).
Chain of Tyrosyl-DNA phosphodiesterase 2 (O95551 whole entry): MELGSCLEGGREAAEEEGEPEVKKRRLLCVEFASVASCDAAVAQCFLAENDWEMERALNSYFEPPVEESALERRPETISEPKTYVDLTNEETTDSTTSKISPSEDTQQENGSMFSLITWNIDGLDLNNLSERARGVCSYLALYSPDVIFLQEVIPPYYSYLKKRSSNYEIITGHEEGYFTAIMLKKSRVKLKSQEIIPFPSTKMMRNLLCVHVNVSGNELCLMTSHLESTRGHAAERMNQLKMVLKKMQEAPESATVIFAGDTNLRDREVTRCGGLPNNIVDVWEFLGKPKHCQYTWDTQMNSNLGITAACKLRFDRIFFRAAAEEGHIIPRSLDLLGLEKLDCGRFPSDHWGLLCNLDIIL
A short description of assay [4]: cells. To be noted: A549.
Assay [5] relates to Vero. The assay is described as follows: cells. Type of assay: functional. The following applies: Chlorocebus sabaeus.
Assay [6] has as its system BHK-21. The experiment in a line: viability loss in BHK-21 cells – cell-based, plate reader, cherry-pick samples, cytotoxicity control, dose response (AID 687030). The assay is classed as functional. The following applies: Mesocricetus auratus.
In assay [7] the test system is Vero. The experiment in a line: viability loss in Vero cells – cell-based, plate reader, cherry-pick samples, cytotoxicity control, dose response (AID 687020). To be noted: Chlorocebus sabaeus. Type of assay: functional.
For assay [8], the system named is A549. The assay is described as follows: viability loss in A549 cells – cell-based, plate reader, cherry-pick samples, cytotoxicity control, dose response (AID 687028). The assay is classed as functional. To be noted: Homo sapiens.
The target of assay [9] is T2, CAAX prenyl protease 2 (Saccharomyces cerevisiae S288c, UniProt Q03530).
T2 sequence (Q03530 whole entry): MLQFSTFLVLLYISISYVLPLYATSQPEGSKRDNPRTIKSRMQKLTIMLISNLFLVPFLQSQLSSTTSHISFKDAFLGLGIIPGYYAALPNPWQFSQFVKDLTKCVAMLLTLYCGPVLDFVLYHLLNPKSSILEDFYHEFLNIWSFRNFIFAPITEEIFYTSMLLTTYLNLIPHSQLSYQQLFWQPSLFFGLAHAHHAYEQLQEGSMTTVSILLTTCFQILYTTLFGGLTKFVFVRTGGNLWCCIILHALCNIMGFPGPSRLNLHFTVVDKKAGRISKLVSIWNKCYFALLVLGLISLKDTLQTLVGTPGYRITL
The assay is classed as biochemical.

Assay [10] concerns the target Endoplasmic reticulum aminopeptidase 1 (Homo sapiens, UniProt Q9NZ08). The assay is described as follows: inhibition of human ERAP1 enzyme activity – biochemical, cherry-pick, set 2, plate reader, dose response (AID 743314).
The nature of assay [11]: viability loss in HepG2 hepatoma cells – cell-based, ATP luminescence, cherry-pick, activator set 2, cytotoxicity control, dose response (AID 1053143). The assay is classed as functional.
Assay [12] deals with T3, Polyadenylate-binding protein 1 (Homo sapiens, UniProt P11940). The assay is described as follows: MLLE binding blockers, Cy5 peptide tracer – biochemical, fluorescence polarization, Cy5-PAM2 peptide, secondary, miRNA deadenylation inhibitor project, dose response (AID 602260). The assay is classed as functional. To be noted: read-out: IC50_Mean.
T3 sequence (P11940 whole entry, the tested form may be a part): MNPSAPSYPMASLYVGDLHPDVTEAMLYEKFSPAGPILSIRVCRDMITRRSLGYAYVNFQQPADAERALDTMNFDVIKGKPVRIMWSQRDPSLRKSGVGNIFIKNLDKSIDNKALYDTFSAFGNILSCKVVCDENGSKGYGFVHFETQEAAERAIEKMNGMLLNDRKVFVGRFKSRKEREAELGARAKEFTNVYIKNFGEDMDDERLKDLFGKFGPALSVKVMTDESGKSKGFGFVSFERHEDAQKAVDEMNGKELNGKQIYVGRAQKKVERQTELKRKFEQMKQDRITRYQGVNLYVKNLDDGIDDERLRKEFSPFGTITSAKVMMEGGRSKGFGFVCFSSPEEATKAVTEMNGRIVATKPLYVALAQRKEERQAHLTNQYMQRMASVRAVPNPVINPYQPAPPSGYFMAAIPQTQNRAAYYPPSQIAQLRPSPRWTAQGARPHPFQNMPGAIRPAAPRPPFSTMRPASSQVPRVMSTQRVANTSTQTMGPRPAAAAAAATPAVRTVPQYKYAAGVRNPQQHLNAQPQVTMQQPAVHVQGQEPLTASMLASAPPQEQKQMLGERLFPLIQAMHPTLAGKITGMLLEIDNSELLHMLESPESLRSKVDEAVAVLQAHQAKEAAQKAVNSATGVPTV
Assay [13] deals with T3, Polyadenylate-binding protein 1. The assay is described as follows: MLLE domain peptide-binding blockers, IC50 – biochemical, fluorescence polarization, FITC-PAM2 peptide, dose response (AID 602259). Type of assay: functional. To be noted: read-out: IC50_Mean. A general note: In fluorescence polarisation assays a small probe gives low polarisation when free and higher when bound to something large.

In assay [14] the target is Botulinum neurotoxin type F (Clostridium botulinum, UniProt P30996). The experiment in a line: High-throughput multiplex microsphere dose response for inhibitors of toxin protease, specifically Botulinum neurotoxin light chain F protease, compounds from Cherry Pick 02. To be noted: read-out: EC50_MICROM. The assay is classed as functional.
Chain of Botulinum neurotoxin type F (P30996 1-436 limits assumed): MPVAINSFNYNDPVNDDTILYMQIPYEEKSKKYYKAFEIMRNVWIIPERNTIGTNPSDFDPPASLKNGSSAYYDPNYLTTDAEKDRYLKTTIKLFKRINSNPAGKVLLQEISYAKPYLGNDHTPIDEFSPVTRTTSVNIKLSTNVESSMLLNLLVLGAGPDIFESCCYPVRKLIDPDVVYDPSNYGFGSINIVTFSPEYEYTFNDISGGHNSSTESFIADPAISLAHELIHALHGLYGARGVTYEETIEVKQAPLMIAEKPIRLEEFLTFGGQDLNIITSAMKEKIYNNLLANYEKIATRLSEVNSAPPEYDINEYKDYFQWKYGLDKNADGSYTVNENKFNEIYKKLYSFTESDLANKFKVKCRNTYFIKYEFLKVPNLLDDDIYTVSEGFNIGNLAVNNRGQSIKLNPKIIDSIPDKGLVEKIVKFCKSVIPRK
Assay [15] deals with T4, Protein skinhead-1 (Caenorhabditis elegans, UniProt P34707).
T4 sequence (P34707 whole entry): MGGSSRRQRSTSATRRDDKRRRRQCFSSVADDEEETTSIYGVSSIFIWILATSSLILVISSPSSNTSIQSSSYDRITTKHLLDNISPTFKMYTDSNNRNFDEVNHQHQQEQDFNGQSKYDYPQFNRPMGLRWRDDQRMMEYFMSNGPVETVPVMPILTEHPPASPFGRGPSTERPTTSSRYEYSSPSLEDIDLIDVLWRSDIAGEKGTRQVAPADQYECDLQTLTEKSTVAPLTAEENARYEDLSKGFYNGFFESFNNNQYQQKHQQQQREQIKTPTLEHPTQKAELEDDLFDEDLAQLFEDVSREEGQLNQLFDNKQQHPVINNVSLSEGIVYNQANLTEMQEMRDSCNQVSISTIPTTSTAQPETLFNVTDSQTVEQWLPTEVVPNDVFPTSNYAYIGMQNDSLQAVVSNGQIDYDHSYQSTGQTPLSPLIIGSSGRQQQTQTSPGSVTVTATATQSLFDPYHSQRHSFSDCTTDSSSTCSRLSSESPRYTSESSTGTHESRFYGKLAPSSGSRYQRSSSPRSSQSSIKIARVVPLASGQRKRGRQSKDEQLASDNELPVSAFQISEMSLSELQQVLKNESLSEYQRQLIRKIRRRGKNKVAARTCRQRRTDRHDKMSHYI
Type of assay: functional.

The nature of assay [16]: cytotoxicity in HEK293 background cells – cell-based, dry powder, set 2, counter-screen for EBV LMP1 inhibitor project, dose response (AID 624374). The assay is classed as functional. On the technique in general: The purpose of a counterscreen is to sort out artefacts and off-target activity.
Assay [17] in a line: viability loss in LCL cells – cell-based, plate reader, dry powder, set 2, cytotoxicity control, dose response (AID 624367). Type of assay: functional.
The nature of assay [18]: Dd2 parasite growth inhibition in erythrocytes – SYBR Green, dry powder samples, set 9, dose response (AID 1159568). The assay is classed as functional, cell-based.

Chain of Endoplasmic reticulum aminopeptidase 1 (Q9NZ08 whole entry): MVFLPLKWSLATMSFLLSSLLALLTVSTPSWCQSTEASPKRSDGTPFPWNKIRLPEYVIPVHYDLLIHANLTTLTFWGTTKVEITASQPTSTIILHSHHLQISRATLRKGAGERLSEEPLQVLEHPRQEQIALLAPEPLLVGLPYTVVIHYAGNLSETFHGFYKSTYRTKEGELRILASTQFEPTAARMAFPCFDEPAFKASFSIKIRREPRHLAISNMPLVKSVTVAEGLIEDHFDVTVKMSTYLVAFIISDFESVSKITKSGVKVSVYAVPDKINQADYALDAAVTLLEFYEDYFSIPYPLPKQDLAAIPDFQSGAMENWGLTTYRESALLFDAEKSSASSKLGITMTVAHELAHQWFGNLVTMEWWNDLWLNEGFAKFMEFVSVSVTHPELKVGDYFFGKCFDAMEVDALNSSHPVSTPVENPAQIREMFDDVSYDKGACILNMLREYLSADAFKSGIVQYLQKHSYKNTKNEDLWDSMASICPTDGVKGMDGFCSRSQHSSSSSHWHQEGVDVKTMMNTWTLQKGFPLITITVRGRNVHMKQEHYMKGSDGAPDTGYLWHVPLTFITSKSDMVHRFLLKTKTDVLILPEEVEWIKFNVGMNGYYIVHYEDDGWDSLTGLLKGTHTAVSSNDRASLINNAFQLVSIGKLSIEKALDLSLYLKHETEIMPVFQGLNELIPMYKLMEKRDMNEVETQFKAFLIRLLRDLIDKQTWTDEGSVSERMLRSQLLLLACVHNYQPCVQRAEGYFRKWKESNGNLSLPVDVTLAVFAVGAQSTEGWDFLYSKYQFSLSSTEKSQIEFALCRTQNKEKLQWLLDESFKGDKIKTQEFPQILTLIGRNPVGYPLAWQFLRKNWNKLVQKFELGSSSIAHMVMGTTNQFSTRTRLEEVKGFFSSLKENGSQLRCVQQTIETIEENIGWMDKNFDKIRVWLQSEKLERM

`O=S(=O)(Nc1ccc(O)c2ccccc12)c1cccs1`: the results for the IC50 in [1], in [2] and in assay [3] were 9.75 µM (active), 62.6 µM (active) and > 128 µM (inactive), respectively.

Regarding `Cc1ccc2c(c1)N(C(=O)CCC(=O)NCCCN1CCOCC1)CC(C)O2` (stereo not drawn), the AC50 in assay [4] was > 52 µM (inactive).

As for `CN(C)CCCN1c2ccccc2Sc2ccc3ccccc3c21`, in [5], the CC50 is 16.2 µM (active). Besides, the AC50 in assay [6] is 36 µM (active).

For `Cc1ccc(C(C)C)c(OCCNC(=O)c2ccccc2O)c1`, the AC50 in [7] is 1.45 µM (active); in assay [8] it was 2.13 µM (active).

On to `CCOC(=O)C[n+]1ccc2c([nH]c3ccccc32)c1C`, for which the AC50 in [9] is > 100 µM (inactive); in assay [10], 11.4 µM (active).

With `O=C(Nc1ncccc1O)c1ccc(Oc2ccccc2)cc1`, the AC50 in assay [11] is 26 µM (active).

Turning to `Cc1cc2cc(CNC(=O)c3ccc(S(=O)(=O)N(C)C)cc3)ccc2n1C`, the IC50 is > 66 µM (inactive) in assay [12], > 66 µM (inactive) in assay [13] and > 100 µM (inactive) in assay [15]. For the same compound, the EC50 in assay [14] was > 20 µM (inactive).

As to `CC(C)(C)[S@+]([O-])N1Cc2cc(C(=O)NCC(F)(F)F)nc(-c3cccc(-c4cccc(F)c4)c3)c2[C@@H]1CCO`, the AbsAC35 in assay [16] was 111.16 µM; in assay [17] it was 124.56 µM. Also, the AC50 in [18] is 6.29 µM (active).

The values are drawn from ChEMBL document CHEMBL1201862, “PubChem BioAssay data set” (2004).
